In patent US9580390B2, “Indazole compounds as kinase inhibitors and method of treating cancer with same” (University Health Network, priority 2011, dated 2017) one finds GI50 and IC50 data, which are given here for 18 compounds.

The test system of assay [1] is colon cancer cells (HCT116). Description: Cancer cell line growth inhibition (SRB assay). Format: cell-based. The settings on record: Homo sapiens, HCT-116, read-out: Cancer Cell Line GI50 Range HCT116. On the technique in general: The SRB assay estimates cell density from bound dye.
In a further assay the test system is TICs (Colon 12). Put plainly: Colon tumor-initiating cell growth inhibition (Alamar Blue). Format: cell-based. The settings on record: 216 h, 9 days, read-out: Tumor Initiating Cell GI50 Range Colon 12. (In general: Alamar Blue is a resazurin reagent that responds to reducing activity.)
Another assay concerns TICs (Ovarian 2393A). Put plainly: Ovarian tumor-initiating cell growth inhibition (Alamar Blue). Format: cell-based. Particulars: 144 h; ovarian TICs, 6 days, Alamar Blue; read-out: Tumor Initiating Cell GI50 Range Ovarain 2393A.
The next assay concerns the target T1, human TTK (Homo sapiens, UniProt P33981).
T1 construct: amino terminal GST fusion of full length human TTK; purchased Invitrogen
T1 sequence (P33981 1-857): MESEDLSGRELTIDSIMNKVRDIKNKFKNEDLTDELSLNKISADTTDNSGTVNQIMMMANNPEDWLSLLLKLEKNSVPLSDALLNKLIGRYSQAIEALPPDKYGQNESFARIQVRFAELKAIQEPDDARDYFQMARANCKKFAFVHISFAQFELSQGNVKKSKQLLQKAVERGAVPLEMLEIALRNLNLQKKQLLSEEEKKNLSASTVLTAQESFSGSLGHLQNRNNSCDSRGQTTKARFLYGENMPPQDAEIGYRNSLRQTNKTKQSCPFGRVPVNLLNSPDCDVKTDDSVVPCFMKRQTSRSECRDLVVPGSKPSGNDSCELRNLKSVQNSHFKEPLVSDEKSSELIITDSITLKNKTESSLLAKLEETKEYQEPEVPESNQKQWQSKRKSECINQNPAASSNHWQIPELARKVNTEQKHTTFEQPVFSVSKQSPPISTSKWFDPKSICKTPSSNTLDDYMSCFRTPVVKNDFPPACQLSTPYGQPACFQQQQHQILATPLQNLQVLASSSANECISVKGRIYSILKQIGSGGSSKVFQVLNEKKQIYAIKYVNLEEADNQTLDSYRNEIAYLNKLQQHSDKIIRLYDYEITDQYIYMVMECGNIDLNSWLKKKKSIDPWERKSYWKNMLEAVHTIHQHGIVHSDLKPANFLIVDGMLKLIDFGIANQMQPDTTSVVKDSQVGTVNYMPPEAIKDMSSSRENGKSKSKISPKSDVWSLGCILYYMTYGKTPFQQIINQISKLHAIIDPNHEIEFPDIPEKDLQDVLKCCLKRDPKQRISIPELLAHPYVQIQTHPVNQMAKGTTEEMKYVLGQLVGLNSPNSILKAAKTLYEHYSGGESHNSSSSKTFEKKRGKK
Description: TTK inhibition assay (indirect ELISA). Particulars: read-out: TTK IC50 Range. Format: biochemical. For orientation: An ELISA detects its analyte on a solid surface through an enzyme-linked reagent.

In a further assay the test system is Breast cancer cells. Put plainly: Cancer cell line growth inhibition (SRB assay). Format: cell-based. The settings on record: Homo sapiens; MDA-MB-468; read-out: Cancer Cell Line GI50 Range MDA-MB-468.
Assay [2] relates to ovarian cancer cells (PA-1). Put plainly: Cancer cell line growth inhibition (SRB assay). Format: cell-based. Particulars: Homo sapiens, PA-1; read-out: Cancer Cell Line GI50 Range PA-1.
Setting [3] is: HCT116 colon cancer cells, SRB assay.

Like-named read-outs stand apart in the source and are kept apart here.

For orientation: GI50 means the concentration at which growth is held to half of that of the control. `CO[C@@H](C(=O)Nc1ccc2[nH]nc(-c3ccc(OC4CCN(C)CC4)cc3)c2c1)c1ccccc1` [Example A27, (R)-2-methoxy-N-(3-(4-((1-methylpiperidin-4-yl)oxy)phenyl)-1H-indazol-5-yl)-2-phenylacetamide]: the GI50 in assay [1] (setting [3]) is less than 0.1 µM; in the assay with TICs (Colon 12) (colon TICs, Alamar Blue), 0.1 to 0.5 µM; with TICs (Ovarian 2393A), 0.1 to 0.5 µM.
Usually IC50 stands for the concentration needed to halve the response being measured. Take `CC(C)[C@H](NC(=O)c1ccc2[nH]nc(-c3ccc(N4CC(N5CCOCC5)C4)cc3)c2c1)c1ccccc1Cl` [Example A313, (S)-N-(1-(2-chlorophenyl)-2-methylpropyl)-3-(4-(3-morpholinoazetidin-1-yl)phenyl)-1H-indazole-5-carboxamide]: the IC50 on human TTK is less than 0.1 µM. Further, the concentration for 50% growth inhibition (GI50) (with Breast cancer cells; in assay [1]; in assay [2]; in the assay on TICs (Colon 12) (Colon 12 TICs)) was less than 0.1 µM each time.
Consider `O=C(N[C@@H](c1ccccn1)C1CCCC1)c1ccc2[nH]nc(-c3ccc(N4C5CCC4CC(O)C5)cc3)c2c1` (stereo partly drawn) [Example A364, N-((R)-cyclopentyl(pyridin-2-yl)methyl)-3-(4-((1R,3R,5S)-3-hydroxy-8-azabicyclo[3.2.1]octan-8-yl)phenyl)-1H-indazole-5-carboxamide], for which the IC50 at human TTK is less than 0.1 µM. In addition, the GI50 (in the assay with Breast cancer cells; in assay [1]; in assay [2]; in the assay with TICs (Colon 12) (Colon 12 TICs)) was less than 0.1 µM in each case.
For the compound `O=C(N[C@H](c1ncccn1)C1CCCC1)c1ccc2[nH]nc(-c3ccc(N4C5CCC4CC(O)C5)cc3)c2c1` (stereo partly drawn) [Example A367, N-((S)-cyclopentyl(pyrimidin-2-yl)methyl)-3-(4-((1R,3S,5S)-3-hydroxy-8-azabicyclo[3.2.1]octan-8-yl)phenyl)-1H-indazole-5-carboxamide], on human TTK, the IC50 was less than 0.1 µM. Besides, the GI50 (with Breast cancer cells; in assay [1]; in assay [2]; in the assay with TICs (Colon 12) (Colon 12 TICs)) was less than 0.1 µM in each case.
`O=C(NC(c1ccccc1)C1CC1)c1ccc2[nH]nc(-c3ccc(N4CCOCC4)cc3)c2c1` (stereo not drawn) [Example A12, N-(cyclopropyl(phenyl)methyl)-3-(4-morpholinophenyl)-1H-indazole-5-carboxamide]: the GI50 in assay [1] (setting [3]) is less than 0.1 µM; in the assay with TICs (Colon 12) (colon TICs, Alamar Blue), more than 0.5 µM; in the assay with TICs (Ovarian 2393A) it was 0.1 to 0.5 µM.
Taken in the same sequence, the figures for `O=C(Nc1ccc2[nH]nc(-c3ccc(N4CCOCC4)cc3)c2c1)C(c1ccsc1)N1CCCC1` (stereo not drawn) [Example A4] were less than 0.1 µM, less than 0.1 µM and 0.1 to 0.5 µM.
With `O=C(NCC1(N2CCOCC2)CCCCC1)c1ccc2[nH]nc(-c3ccc(N4[C@@H]5CC[C@H]4COC5)cc3)c2c1` [Example A501, 3-(4-((1R,5S)-3-oxa-8-azabicyclo[3.2.1]octan-8-yl)phenyl)-N-((1-morpholinocyclohexyl)methyl)-1H-indazole-5-carboxamide], the IC50 on human TTK is less than 0.1 µM. Besides, the GI50 (with Breast cancer cells; in assay [1]; in assay [2]; in the assay with TICs (Colon 12) (Colon 12 TICs)) was less than 0.1 µM in each case.
For `O=C(NC(c1ccsc1)C1CC1)c1ccc2[nH]nc(-c3ccc(N4CCOCC4)cc3)c2c1` (stereo not drawn) [Example A35, N-(cyclopropyl(thiophen-3-yl)methyl)-3-(4-morpholinophenyl)-1H-indazole-5-carboxamide], the GI50 in assay [1] (setting [3]) was less than 0.1 µM; in the assay with TICs (Colon 12) (colon TICs, Alamar Blue) it was more than 0.5 µM; in the assay on TICs (Ovarian 2393A), 0.1 to 0.5 µM.
As to `O=C(N[C@H](c1ccccn1)C1CC1)c1ccc2[nH]nc(-c3ccc(N4[C@@H]5CC[C@H]4COC5)cc3)c2c1` [Example A414, 3-(4-((1R,5S)-3-oxa-8-azabicyclo[3.2.1]octan-8-yl)phenyl)-N-((S)-cyclopropyl(pyridin-2-yl)methyl)-1H-indazole-5-carboxamide], the IC50 at human TTK is less than 0.1 µM. Further, the GI50 (with Breast cancer cells; in assay [1]; in assay [2]; in the assay with TICs (Colon 12) (Colon 12 TICs)) was less than 0.1 µM throughout.
For the compound `CC(C)CC(NC(=O)c1ccc2[nH]nc(-c3ccc(O[C@H]4C[C@H]5CC[C@@H](C4)N5C=O)cc3)c2c1)c1ccccc1` (stereo partly drawn) [Example A340, 3-(4-(((1R,3R,5S)-8-formyl-8-azabicyclo[3.2.1]octan-3-yl)oxy)phenyl)-N-(3-methyl-1-phenylbutyl)-1H-indazole-5-carboxamide], on human TTK, the IC50 was less than 0.1 µM. Besides, the GI50 is 0.1 to 0.5 µM in the assay with Breast cancer cells, 0.1 to 0.5 µM in assay [1] and less than 0.1 µM in assay [2].
Turning to `O=C(N[C@H](c1ccsc1)C1CC1)c1ccc2[nH]nc(-c3ccc(N4C5CCC4CC(O)C5)cc3)c2c1` (stereo partly drawn) [Example A365, N-((S)-cyclopropyl(thiophen-3-yl)methyl)-3-(4-((1R,3S,5S)-3-hydroxy-8-azabicyclo[3.2.1]octan-8-yl)phenyl)-1H-indazole-5-carboxamide], on human TTK, the IC50 was less than 0.1 µM. Moreover, the GI50 (in the assay on Breast cancer cells; in assay [1]; in assay [2]) was less than 0.1 µM in each case.
Take `O=C(N[C@@H](c1ncccn1)C1CCCC1)c1ccc2[nH]nc(-c3ccc(N4C5CCC4CC(O)C5)cc3)c2c1` (stereo partly drawn) [Example A366, N-((R)-cyclopentyl(pyrimidin-2-yl)methyl)-3-(4-((1R,3R,5S)-3-hydroxy-8-azabicyclo[3.2.1]octan-8-yl)phenyl)-1H-indazole-5-carboxamide]: at human TTK, the IC50 is less than 0.1 µM. In addition, the GI50 (in the assay with Breast cancer cells; in assay [1]; in assay [2]; in the assay on TICs (Colon 12) (Colon 12 TICs)) was less than 0.1 µM in each case.
Turning to `O=C(N[C@H](c1ccccn1)C1CC1)c1cc2c(-c3ccc(N4[C@@H]5CC[C@H]4COC5)cc3)n[nH]c2cc1F` [Example A272, 3-(4-((1R,5S)-3-oxa-8-azabicyclo[3.2.1]octan-8-yl)phenyl)-N-((S)-cyclopropyl(pyridin-2-yl)methyl)-6-fluoro-1H-indazole-5-carboxamide], the IC50 on human TTK was less than 0.1 µM. Further, the GI50 is more than 0.5 µM in the assay on Breast cancer cells, 0.1 to 0.5 µM in assay [1] and 0.1 to 0.5 µM in assay [2].
As for `CC(C)C[C@H](NC(=O)c1ccc2[nH]nc(-c3ccc(N4CC(N5CCOCC5)C4)cc3)c2c1)c1ccccc1F` [Example A276, (S)-N-(1-(2-fluorophenyl)-3-methylbutyl)-3-(4-(3-morpholinoazetidin-1-yl)phenyl)-1H-indazole-5-carboxamide], the IC50 at human TTK was less than 0.1 µM. The figures for the GI50 (with Breast cancer cells; in assay [1]; in assay [2]) were 0.1 to 0.5 µM, less than 0.1 µM and less than 0.1 µM, respectively.
For `Cc1cc(=O)n(C)c2ccc(-c3n[nH]c4ccc(C(=O)N[C@H](c5ccccn5)C5CCCC5)cc34)cc12` [Example A239, (S)-N-(cyclopentyl(pyridin-2-yl)methyl)-3-(1,4-dimethyl-2-oxo-1,2-dihydroquinolin-6-yl)-1H-indazole-5-carboxamide], the IC50 at human TTK was less than 0.1 µM. In addition, the GI50 (with Breast cancer cells; in assay [1]; in assay [2]) was more than 0.5 µM throughout.
For `CC(C)C(NC(=O)c1ccc2[nH]nc(-c3ccc(O[C@H]4C[C@H]5CC[C@@H](C4)N5C)cc3)c2c1)c1ccccc1F` (stereo partly drawn) [Example A281, N-(1-(2-fluorophenyl)-2-methylpropyl)-3-(4-(((1R,3R,5S)-8-methyl-8-azabicyclo[3.2.1]octan-3-yl)oxy)phenyl)-1H-indazole-5-carboxamide], the IC50 at human TTK is less than 0.1 µM. Moreover, the GI50 is 0.1 to 0.5 µM with Breast cancer cells, less than 0.1 µM in assay [1] and less than 0.1 µM in assay [2].
In the case of `CCC(CC)(CNC(=O)c1ccc2[nH]nc(-c3ccc(OC4CCN(C[C@@H](C)O)CC4)cc3)c2c1)c1ccccc1` [Example A443, (R)-N-(2-ethyl-2-phenylbutyl)-3-(4-((1-(2-hydroxypropyl)piperidin-4-yl)oxy)phenyl)-1H-indazole-5-carboxamide], the IC50 on human TTK was less than 0.1 µM. The GI50 is more than 0.5 µM in the assay on Breast cancer cells, 0.1 to 0.5 µM in assay [1] and 0.1 to 0.5 µM in assay [2].
As for `O=C(N[C@H](c1ccccn1)C1CCCC1)c1ccc2[nH]nc(-c3ccc(N4CC(N5CCOCC5)C4)cc3)c2c1` [Example A314], on human TTK, the IC50 was less than 0.1 µM. The GI50 (in the assay with Breast cancer cells; in assay [1]; in assay [2]; in the assay on TICs (Colon 12) (Colon 12 TICs)) was less than 0.1 µM in each case.
